Experiments:
[1] = test system: mouse models with temporary and permanent middle cerebral artery (MCA) occlusion; test: Ischemic volume (TTC) in stroke models with middle cerebral artery occlusion; type: in vivo; conditions: intraperitoneal
Description: In order to investigate the changes in ischemic volume and modified limb placing test (MLPT) score by treatment with SL (3′-SL & 6′-SL) compositions in stroke models, 4-week-old mice were purchased from Central Lab Animal (Korea). Water was freely accessible, and a commercially available pellet feed (Dooyeul Biotech, Korea) was given for one week. Stroke models involving temporary and permanent middle cerebral artery (MCA) occlusion and intracerebral hemorrhage (ICH) were fabricated using 6-week-old male Sprague-Dawley rats (weight, average 185.3±15.8 g) and male BALB/c mice weight, average 24.6±3.8 g). For the comparison of SL administration effects, the mice, one hour after stroke induction, were randomly grouped into three different intraperitoneal administration groups (8 animals per group, 24 animals in total) below, and then intraperitoneally administered: • Control group: Lysis buffer control group medium intraperitoneal administration group (8 animals) • 3′-SL treatment: 3′-SL lysis buffer medium intraperitoneal administration group (8 animals) • 6′-SL treatment: 6′-SL lysis buffer medium intraperitoneal administration group (8 animals)
Local cerebral infarction mouse models were used as additional cerebral infarction models, and in these models, SL (3′-SL & 6′-SL) was intraperitoneally administered 3 hours after cerebral infarction introduction: • Control group: Lysis buffer control group medium intraperitoneal administration group (8 animals) • 3′-SL treatment: 3′-SL lysis buffer medium intraperitoneal administration group (8 animals) • 6′-SL treatment: 6′-SL lysis buffer medium intraperitoneal administration group (8 animals)
The ischemic volume measurement was conducted by measuring the volume of the ischemic area (infarct and boundary region thereof) using […] (TTC), 24 hours after ischemic induction, as follows. After brain extraction, the frontal tip was cut into 1 mm thickness, and immersed in 2% TCC solution. The stained slices were then fixed with PBS-4% paraformaldehyde, and the ischemic site and hemispherical region of each slice were measured using an image analysis system. The values due to brain edema were corrected as follows: corrected ischemic volume value: measured ischemic area×1−{[(ipsilateral hemisphere area-contralateral hemisphere area)/contralateral hemisphere]}. The ischemic volume was expressed as a percentage of the total hemispherical volume.

telomerase [2] = test: Telomerase activity (TRAP) in vitro, MASMs of aging stimulation models; type: cell-based, mouse; conditions: MASMs of aging stimulation model control group, cultured 1 day with SL
Protocol: (§1) In FIGS. 18a and 18b, the telomerase activity was measured using TRAP protocol (Wright et al., 1995). In summary, cell pellets were lysed in CHAPS lysis solvent (containing ribnuclease inhibitor), followed by incubation at 4° C. for 30 minutes. Cell extracts ([…]) were TRAPeze reaction mix (telomerase substrate (TS) primer, fluorescent-labeled RP (reverse) primer, control standard template, and sulforhodamine-labeled standard K2 primer). The TS primer was elongated at 30° C. for 30 minutes, and then PCR was performed. The fluorescence of the thus obtained TRAP product was measured using a fluorescent plate reader to quantify telomerase activity. Relative telomerase activity was normalized by the ratio of native […] to sulforhodamine (internal control standard), expressed as a percentage. Fluorescein (M0250) was purchased from Marker Gene Technologies, Inc. H2-dichlorofluorescin diacetate (DCFDA) was purchased from Molecular Probes. MitoSOX™ Red, MitoTracker Green FM, and MitoTracker® Orange CMTMRos (MTO) were purchased from Invitrogen. 10,000× SYBR® Gold dye was purchased from Molecular Probes, Inc. Nuclear/Cytosol fractionation kit (K266-100) was purchased from BioVision. TRAPeze® XL telomerase detection kit (S7707) was purchased from MILLIPORE. Telomere PNA FISH Kit/Cy3 (K5326) was purchased from Dako. […]

[3] = test system: mouse aortic smooth muscle cells (MASMs); test: Mitochondrial superoxide production (MitoSOX Red) in MASMs of arteriosclerosis model mice; type: cell-based; conditions: MASMs from PGC-1α+/+ApoE−/− mice; SL added to culture liquid
Protocol: For the measurement of mitochondrial superoxide production, mitochondrial ROS was measured using MitoSOX Red (mitochondrial superoxide fluorescent marker). MASMs were extracted, and incubated with MitoSOX (4 μM) in the dark room at 37° C. for 20 minutes. The MitoSOX fluorescence was quantified by the cell fluorescence intensity read using a fluorescent plate reader (480 nm excitation/580 nm emission) (FIG. 19b).
In FIGS. 19a and 19b, MASMs were extracted from the model mouse (PGC-1α^+/+ApoE^−/−) control group, and the SL (3′-SL & 6′-SL) compositions were added to the culture liquid to conduct comparison.
FIGS. 19a and 19b show the measurement results of intercellular H2O2 (ROS values) (FIG. 19a) and the measurement results of mitochondrial superoxide production (FIG. 19b). MASMs were extracted from the model mice (PGC-1α^+/+ApoE^−/−), and the SL (3′-SL & 6′-SL) compositions were added to the culture liquid to conduct comparison.

telomerase [4] = test: Telomerase activity (TRAP) in vitro, MASMs of arteriosclerosis models; type: cell-based, mouse; conditions: MASMs of ApoE−/− control group, cultured 1 day with SL
Protocol: as §1, with “FIG. 20,” for “FIGS. 18a and 18b,”, “ribonuclease” for “ribnuclease”

SMILES: CC(=O)N[C@H]1[C@H]([C@H](O)[C@H](O)CO)O[C@@](OC[C@H]2O[C@@H](O[C@H]3[C@H](O)[C@@H](O)[C@H](O)O[C@@H]3CO)[C@H](O)[C@@H](O)[C@H]2O)(C(=O)O)C[C@@H]1O [6′-SL, α-NeuNAc-(2→6)-β-D-Gal-(1→4)-D-Glc]
- reduction of ischemic volume ([1]; all models, 24 hours after ischemic induction): about 50%
- reduction of ischemic volume ([1]; local cerebellar permanent ischemia models): 50%
- reduction of ischemic volume ([1]; local cerebellar temporal ischemia models): 60%
- reduction of ischemic volume ([1]; local cerebral permanent occlusion models): 40%
- telomerase activity in MASMs (in vitro) (telomerase [2]): increased telomerase activity
- mitochondrial superoxide production [3]: inhibited the mitochondrial superoxide production
- telomerase activity in MASMs (in vitro) (telomerase [4]): increased telomerase activity

SMILES: CC(=O)N[C@H]1[C@H]([C@H](O)[C@H](O)CO)O[C@@](O[C@H]2[C@@H](O)[C@@H](CO)O[C@@H](O[C@H]3[C@H](O)[C@@H](O)C(O)O[C@@H]3CO)[C@@H]2O)(C(=O)O)C[C@@H]1O (stereo partly drawn) [3′-SL, α-NeuNAc-(2→3)-β-D-Gal-(1→4)-D-Glc]
- ischemic neuronal damage protective effects ([1]; MCA occlusion models): relatively low compared with 6′-SL
- telomerase activity in MASMs (in vitro) (telomerase [2]): increased telomerase activity
- mitochondrial superoxide production [3]: inhibited the mitochondrial superoxide production
- telomerase activity in MASMs (in vitro) (telomerase [4]): increased telomerase activity

Reference: patent US20190030053A1, “COMPOSITION FOR INCREASING EXPRESSION OF PGC-1alpha” (BENEBIOSIS CO., LTD., priority 2016, published 2019)
